# According to patent publication US7812142B2, “Pentose derivatives as anti-hyperglycemic drugs” (Yissum Research Development Company of the Hebrew …, priority 2002, dated 2010):
# How the values were obtained:
# L8 myocytes = test: [3H]-2-deoxy-D-glucose (dGlc) uptake assay in L8 myocytes; format: cell-based
# Method: (§1) The time-course of D-xylose effect in two types of skeletal muscle cells (L8 myocytes and C2 myotubes) was studied. L8 myocytes and C2 myotubes preconditioned in 20 mM glucose were incubated with 20 mM xylose. After 90 min the cells were washed and incubated with 20 mM glucose, and subjected to a deoxyglucose dGlc uptake assay (14).
# (§2) It has shown before by the inventors of the present invention that deoxyglucose (dGlc) depresses the hexose transport system in myocytes and that a subsequent incubation with low (even no) glucose fails to reverse this effect of dGlc [Sasson, S et al (1997)]. The inventors have therefore measured the effect of D-xylose on rate of hexose transport following treatment with dGlc. In one experiment, C2 myotubes preconditioned with 2 mM glucose received fresh medium containing 2 mM dGlc. A portion of the cells were washed after 30 min and received 20 MM D-xylose or 2 mM D-glucose, and subjected to a dGlc uptake assay at different time points. In another experiment, L8 myocytes preconditioned with 2 mM glucose were washed and incubated with 2 mM xylose or 2 mM dGlc. A portion of the cells were washed again after 2 hr and incubated with 20 mM xylose, and subjected to a dGlc uptake assay at different time points.
# This conclusion is also supported by the finding of the a better ability of D-xylose than the other pentoses to reverse 2-deoxy-D-glucose-induced downregulation of the hexose transport system in L8 myocytes. L8 myocytes were preconditioned with 2 mM glucose, washed and incubated with 2 mM dGlc. After 30 min a portion of the cells were washed again and incubated with 20 mM xylose, ribose, arabinose or lyxose. Cells were subjected to the dGlc uptake assay at various time points.
# (§3) Uptake assay of the tritiated glucose analogue, 2-deoxy-D-glucose, is routinely performed as described in [Sasson, S. and Cerasi, E. (1986) J. Biol. Chem. 261, 16827-16833].
# C2 myotubes = test: dGlc uptake assay in C2 myotubes; format: cell-based, mouse
# Method: as §1
# The inventors have also measured the effect of different doses of D-xylose in C2 myotubes. C2 myotubes preconditioned with 20 mM glucose received fresh medium containing 20 mM glucose or increasing concentrations of D-xylose. Standard dGlc uptake assay was performed after 1 hr incubation. […] D-xylose augmented the rate of hexose transport ˜2-fold within 1-2 hr; half-maximal stimulation was observed within 20-30 min, as shown in FIG. 2.
# However, in the above experiments the cells were exposed to D-xylose after removal of the conditioning glucose concentration. […] The inventors therefore added 20 mM D-xylose to C2 myotubes in the presence of 8 or 16 mM glucose and followed its effect.
# as §2, §3
# [1] = system: glucose uptake in cultured cells; test: In vitro glucose uptake / hexose transport in cultured cells with xylose derivatives (Table 2); format: cell-based
# Method: Table 2 summarizes in vitro results obtained with some of these newly synthesized xylose derivatives.
# as §3
# All new compounds are screened and tested first in various insulin-sensitive cell cultures used routinely in the laboratory (skeletal muscle and adipose cell lines). In addition these drugs were tested in non-insulin-sensitive cells such as primary cultures of bovine and porcine vascular endothelial and smooth muscle cells. Active compounds were tested ex-vivo on isolated rat soleus muscles. All cell cultures and tissues were maintained under hyperglycemic condition prior to the addition of the test compounds. Dose-response and time-course experiments determine which of the derivatives are subsequently tested in animal models. For each potent compound the total cell content and plasma membrane abundance of GLUT-1 and GLUT-4 was determined, as described above. The same biotinylation technique was employed to determine the total and plasma membrane content of both transporters in isolated mouse or rat soleus muscles treated with potent compounds.
# L6 myotubes = test: dGlc uptake assay in L6 myotubes; format: cell-based, rat; conditions: 60 μM inhibitor, 23.0 mM glucose (FIG. 11A); EH-40 data not shown
# Method: FIG. 10: Western blot depicting effect of 3-O-propyl-D-xylose (EH-114), and 1,3-O-dimethylxylopyranoside (EH-101) on the total cell content and plasma membrane abundance of GLUT-4 in the absence or presence of insulin. L6 myotubes were maintained for 48 hr at 23 mM Glucose. The cells were than washed and received fresh medium containing the indicated additions and incubated for additional […]. Insulin was added during the last 30 min of incubation before the dGlc uptake assay.
# FIG. 11A: Effect of LY-249002, a PI3-kinase inhibitor, on insulin, D-xylose, EH-101 and EH-114-mediated glucose uptake. L6 myotubes were treated as described in the legend to FIG. 10. The glucose concentration in the culture medium was 23.0 mM. The concentration of LY-294002 was 60 μM. At the end of incubation the cells were taken for the standard dGlc uptake assay. Mean±SEM, n=3.
# GLUT-1 and GLUT-4 mediate glucose entry into L6 myotubes. It is established that GLUT-4 is translocated effectively and rapidly to the plasma membrane upon insulin treatment. The inventors looked at the effect of 3-O-propyl-D-xylose EH-114) and 1,3-O-dimethylxylopyranoside (EH-101) on the total cell content and plasma membrane abundance of these transporters in the absence or presence of insulin. L6 myotubes were maintained at 5.0 or 23.0 mM glucose for 48 hr and EH-114 and EH-101 were present during the last 24 hr. The cells were then taken for the standard [^3H]-2-deoxy-D-glucose uptake assay and for the biotinylation procedure for determining the amount of GLUT-1 and GLUT-4 in the plasma membrane. High glucose levels decreased the hexose transport rate by ˜50%. Insulin augmented the transport nearly 2-fold in both cases. EH-114 and EH-101 increased the transport rate 2-3-fold in the absence of insulin. Together with insulin the uptake rate was increased nearly 3-fold.
# The inventors also tested the hypothesis that the active D-xylose derivatives augment the hexose transport capacity in L6 myotubes by translocating GLUT-4 to the plasma membrane not via the common insulin-regulated pathway. For this experiment, a selective inhibitor of the enzyme PI3-kinase, LY-249002, which is a key enzyme in the cellular transduction mechanism of insulin, was utilized. […] These findings also agree well with the longer onset of action of these derivatives as compared to the rapid action of insulin. Similar results were obtained when LY-249002 was present together with the derivatives throughout the entire incubation period.
# as §3
# [2] = 20 mM xylose, cells preconditioned in 20 mM glucose (FIG. 1)
compound,measurement,setting,value
O=C[C@H](O)[C@@H](O)[C@H](O)CO [D-xylose],reversal of 2-deoxy-D-glucose-induced downregulation of the hexose transport system,L8 myocytes; 20 mM pentose after 30 min 2 mM dGlc (FIG. 8),better than any of the other pentoses
same,rate of hexose transport downregulated by dGlc,L8 myocytes; 20 mM xylose after 2 hr 2 mM dGlc (FIG. 4B),increased the rate of hexose transport
same,rate of glucose transport,L8 myocytes; [2],increases the rate of glucose transport
same,time to half-maximal stimulation,C2 myotubes,20 to 30 min
same,rate of hexose transport downregulated by dGlc,C2 myotubes; 20 mM D-xylose after 30 min 2 mM dGlc (FIG. 4A),increased the rate of hexose transport
same,hexose transport in the presence of glucose,C2 myotubes; 20 mM D-xylose with 8 or 16 mM glucose (FIG. 3),augment hexose transport
same,effect of pentoses on the rate of hexose transport,"C2 myotubes; 20 mM pentose, preconditioned with 20 mM glucose (FIG. 7)",most effective pentose
same,rate of glucose transport,C2 myotubes; [2],increases the rate of glucose transport
same,concentration at which maximal effect is obtained,"C2 myotubes; dose-response, 1 hr incubation, preconditioned with 20 mM glucose (FIG. 2)",20 mM
same,augmentation of the rate of hexose transport,C2 myotubes; within 1-2 hr,~2 fold
same,Fold Increase of Glucose Uptake,[1],~2.0 fold
same,EC50,[1]; EC = Effective concentration,12 mM
same,ECmax,[1]; EC = Effective concentration,20 mM
same,time to loss of activity after being removed,[1]; after being washed from cell cultures,10 to 20 min
same,effect of PI3-kinase inhibitor LY-249002 on the substance's stimulation of hexose transport,L6 myotubes,failed to affect
